Data published in ChEMBL document CHEMBL3632618, “The isolation and synthesis of a novel benzofuran compound from Tephrosia purpurea, and the synthesis of several related derivatives, which suppress histamine H1 receptor gene expression” (Bioorg Med Chem, 2015).

Test system: HeLa; call rule not given here
Assay: Downregulation of PMA-induced H1R mRNA expressed in human HeLa cells incubated for 1 hr prior to PMA stimulation by RT-PCR method
Format: functional, cell-based
[1] = Homo sapiens, HeLa, read-out: IC50

SMILES | IC50 (hela) | IC50 [1] [µM] | IC50 (hela, read-out: IC50) [µM]
NC(=O)c1ccc2occc2c1O | Not Active | – | –
COc1cc2occc2cc1C(=O)O | Not Active | – | –
COc1c(C(=O)O)ccc2occc12 | Not Active | – | –
COc1c(C(N)=O)ccc2occc12 | – | 75.3 | 83.7
NC(=O)c1cc2ccoc2cc1O | – | 84.6 | –
COc1cc2occc2cc1C(N)=O | – | 49.1 | –
